# Source: patent publication US12077537B2 (Gilead Sciences, Inc., priority 2020, dated 2024)
# System: HIV-IIIb
# Assay: Antiviral assay in MT4 cells
# Type: cell-based
# Settings: Human immunodeficiency virus 1, MT4, 120 h; MT-4 cells mixed with HIV-IIIb at m.o.i. 0.003; 5 days at 37° C.; CellTiter-Glo luminescence; 50% decrease in signal, a measure of HIV-1 replication
# Procedure, shortened: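 MT-4 cells were infected with HIV-IIIb at m.o.i. 0.003 for 1 hour, then added to 3-fold serially diluted compound (10 concentrations, quadruplicate) in medium with 10% FBS. After 5 days at 37° C, cell viability was read by CellTiter-Glo chemiluminescence.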
row,SMILES,EC50 [nM]
1,"Cn1nc(N)c2cccc(-c3cc4sc(N5CC(C)(O)C5)nc4nc3[C@H](Cc3cc(F)cc(F)c3)NC(=O)Cn3nc(C(F)F)c4c3C3CC3CC4)c21 (stereo partly drawn) [Compound 50, N—((S)-1-(6-(3-amino-1-methyl-1H-indazol-7-yl)-2-(3-hydroxy-3-methylazetidin-1-yl)thiazolo[4,5-b]pyridin-5-yl)-2-(3,5-difluorophenyl)ethyl)-2-(3-(difluoromethyl)-5,5a,6,6a-tetrahydrocyclopropa[g]indazol-1(4H)-yl)acetamide]",1.3
2,"Cn1nc(N)c2cccc(-c3cc4sc(NCC(C)(C)O)nc4nc3[C@H](Cc3cc(F)cc(F)c3)NC(=O)Cn3nc(C(F)(F)F)c4c3C(F)(F)[C@@H]3C[C@H]43)c21 [Compound 51, N—((S)-1-(6-(3-amino-1-methyl-1H-indazol-7-yl)-2-((2-hydroxy-2-methylpropyl)amino)thiazolo[4,5-b]pyridin-5-yl)-2-(3,5-difluorophenyl)ethyl)-2-((3bS,4aR)-5,5-difluoro-3-(trifluoromethyl)-3b,4,4a,5-tetrahydro-1H-cyclopropa[3,4]cyclopenta[1,2-c]pyrazol-1-yl)acetamide]",9.7
3,"Cn1nc(NS(C)(=O)=O)c2cccc(-c3cc4sc(NCC(C)(C)O)nc4nc3[C@H](Cc3cc(F)cc(F)c3)NC(=O)Cn3nc(C(F)(F)F)c4c3C(F)(F)[C@@H]3C[C@H]43)c21 [Compound 52, 2-((3bS,4aR)-5,5-difluoro-3-(trifluoromethyl)-3b,4,4a,5-tetrahydro-1H-cyclopropa[3,4]cyclopenta[1,2-c]pyrazol-1-yl)-N—((S)-2-(3,5-difluorophenyl)-1-(2-((2-hydroxy-2-methylpropyl)amino)-6-(1-methyl-3-(methylsulfonamido)-1H-indazol-7-yl)thiazolo[4,5-b]pyridin-5-yl)ethyl)acetamide]",9.6
4,"Cn1nc(NS(C)(=O)=O)c2cccc(-c3cc4sc(N5CC(C)(O)C5)nc4nc3[C@H](Cc3cc(F)cc(F)c3)NC(=O)Cn3nc(C(F)(F)F)c4c3C(F)(F)[C@@H]3C[C@H]43)c21 [Compound 53, 2-((3bS,4aR)-5,5-difluoro-3-(trifluoromethyl)-3b,4,4a,5-tetrahydro-1H-cyclopropa[3,4]cyclopenta[1,2-c]pyrazol-1-yl)-N—((S)-2-(3,5-difluorophenyl)-1-(2-(3-hydroxy-3-methylazetidin-1-yl)-6-(1-methyl-3-(methylsulfonamido)-1H-indazol-7-yl)thiazolo[4,5-b]pyridin-5-yl)ethyl)acetamide]",20.4
5,"Cc1c(-c2cc3sc(NCC(C)(C)O)nc3nc2[C@H](Cc2cc(F)cc(F)c2)NC(=O)Cn2nc(C(F)(F)F)c3c2C(F)(F)[C@@H]2C[C@H]32)ccc2n[nH]c(=O)n12 [Compound 54, 2-((3bS,4aR)-5,5-difluoro-3-(trifluoromethyl)-3b,4,4a,5-tetrahydro-1H-cyclopropa[3,4]cyclopenta[1,2-c]pyrazol-1-yl)-N—((S)-2-(3,5-difluorophenyl)-1-(2-((2-hydroxy-2-methylpropyl)amino)-6-(5-methyl-3-oxo-2,3-dihydro-[1,2,4]triazolo[4,3-a]pyridin-6-yl)thiazolo[4,5-b]pyridin-5-yl)ethyl)acetamide]",26.2
6,"Cn1nc(NS(C)(=O)=O)c2cccc(-c3cc4sc(NCC(C)(C)O)nc4nc3[C@H](Cc3cc(F)cc(F)c3)NC(=O)Cn3nc(C(F)F)c4c3C(F)(F)[C@@H]3C[C@H]43)c21 [Compound 55, 2-((3bS,4aR)-3-(difluoromethyl)-5,5-difluoro-3b,4,4a,5-tetrahydro-1H-cyclopropa[3,4]cyclopenta[1,2-c]pyrazol-1-yl)-N—((S)-2-(3,5-difluorophenyl)-1-(2-((2-hydroxy-2-methylpropyl)amino)-6-(1-methyl-3-(methylsulfonamido)-1H-indazol-7-yl)thiazolo[4,5-b]pyridin-5-yl)ethyl)acetamide]",13.5
